This passage reports IC50 results from ChEMBL document CHEMBL1681737, “Isatin 1,2,3-triazoles as potent inhibitors against caspase-3” (Bioorg Med Chem Lett, 2011).

The target of the test is T1, Caspase-3 (Homo sapiens, UniProt P42574).
T1 sequence (P42574 whole entry): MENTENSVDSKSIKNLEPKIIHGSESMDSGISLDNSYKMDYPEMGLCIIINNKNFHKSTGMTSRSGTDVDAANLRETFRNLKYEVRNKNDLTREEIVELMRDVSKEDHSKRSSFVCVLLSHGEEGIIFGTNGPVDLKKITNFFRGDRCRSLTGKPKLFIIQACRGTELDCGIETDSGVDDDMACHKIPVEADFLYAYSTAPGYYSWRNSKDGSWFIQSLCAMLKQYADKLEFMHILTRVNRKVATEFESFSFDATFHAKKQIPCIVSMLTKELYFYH
Kind of test: Inhibition of caspase 3 using Ac-DEVD-AFC fluorogenic substrate.
A word on the IC50: it is the concentration needed to halve the response being measured. Take `O=C1C(=O)N(Cc2cn(CCF)nn2)c2ccc(S(=O)(=O)N3CCC[C@H]3COc3ccccc3)cc21`: the IC50 came out at 16.7 nM. For `O=C1C(=O)N(Cc2cn(CCF)nn2)c2ccc(S(=O)(=O)N3CCC[C@H]3COc3ccc(F)cc3F)cc21` the value was 0.5 nM; for `O=C1Nc2ccc([N+](=O)[O-])cc2C1=O` [5-NITROISATIN], 1000 nM.
